Laboratory results: ChEMBL document CHEMBL1201862, “PubChem BioAssay data set” (2004)
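Briefly, cells in 96-well plates were exposed to five compound concentrations for 48 h, and endpoints were estimated by linear interpolation. Here, GI50 denotes the concentration required for 50% inhibition of growth.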 Active and inactive are the calls of the source. Cut-off read from the data, not from the text of the source: active = GI50 up to about 1.1 µM and inactive = higher.

Key:
Assay in all cases: inhibition of tumour cell growth, NCI panel, 48 h
SR = system: SR
MCF7 = system: MCF7
U-251 = system: U-251
NCI-H522 = system: NCI-H522
MOLT-4 = system: MOLT-4
SN12C = system: SN12C
HL-60 = system: HL-60
HOP-92 = system: HOP-92
Malme-3M = system: Malme-3M
SF-295 = system: SF-295
UO-31 = system: UO-31
MDA-MB-231 = system: MDA-MB-231
CCRF-CEM = system: CCRF-CEM
SF-539 = system: SF-539
DU-145 = system: DU-145
SF-268 = system: SF-268
NCI-H460 = system: NCI-H460
SW-620 = system: SW-620
SNB-75 = system: SNB-75

Measured: GI50

C[N+](C)(C)/N=C\c1ccc(O)c(O)c1
inactive: SR > 100 µM | MCF7 > 100 µM | U-251 > 100 µM | NCI-H522 > 100 µM | MOLT-4 > 100 µM | SN12C > 100 µM | HL-60 > 100 µM | HOP-92 > 100 µM | Malme-3M > 100 µM | SF-295 > 100 µM | UO-31 > 100 µM | MDA-MB-231 > 100 µM | CCRF-CEM > 100 µM | SF-539 > 100 µM | DU-145 > 100 µM | SF-268 > 100 µM | NCI-H460 > 100 µM | SW-620 > 100 µM

Nc1ccc(S(=O)(=O)c2ccc(/N=[N+](\[O-])c3ccc(S(=O)(=O)c4ccc(N)cc4)cc3)cc2)cc1
inactive: SR > 61.4 µM | MCF7 > 64.6 µM | U-251 27.7 µM | NCI-H522 17.9 µM | SNB-75 8.02 µM | MOLT-4 > 100 µM | SN12C > 68.9 µM | HL-60 > 100 µM | HOP-92 10.1 µM | Malme-3M > 56.4 µM | SF-295 22.1 µM | UO-31 > 100 µM | MDA-MB-231 35.8 µM | CCRF-CEM > 100 µM | SF-539 18.9 µM | DU-145 81.7 µM | SF-268 15 µM | NCI-H460 66.5 µM | SW-620 > 100 µM

COc1cc(/C=N/N=C2NCCN2)ccc1O
inactive: SR > 100 µM | MCF7 > 100 µM | U-251 > 100 µM | NCI-H522 > 100 µM | SNB-75 > 100 µM | MOLT-4 > 100 µM | SN12C > 100 µM | HL-60 > 100 µM | HOP-92 > 100 µM | Malme-3M > 100 µM | SF-295 68.5 µM | UO-31 > 100 µM | MDA-MB-231 > 100 µM | CCRF-CEM > 100 µM | SF-539 > 100 µM | DU-145 > 100 µM | SF-268 > 100 µM | NCI-H460 > 100 µM | SW-620 > 100 µM

COc1cc(CNc2nc3ccccc3nc2-c2cccs2)cc(OC)c1OC
inactive: SR 6.87 µM | MCF7 21.7 µM | U-251 27.6 µM | NCI-H522 14 µM | SNB-75 > 100 µM | MOLT-4 7.67 µM | SN12C 12.9 µM | HL-60 14 µM | HOP-92 1.26 µM | Malme-3M 17.9 µM | SF-295 33.5 µM | UO-31 5.09 µM | MDA-MB-231 17.6 µM | CCRF-CEM 13.1 µM | SF-539 78.5 µM | DU-145 44.4 µM | SF-268 > 100 µM | NCI-H460 10.5 µM | SW-620 36.7 µM

C=CCc1cccc2cc(C(=O)NC3CCCCC3)c(=N)oc12
inactive: SR 63.8 µM | MCF7 26.2 µM | U-251 27.2 µM | NCI-H522 > 100 µM | SNB-75 15.8 µM | MOLT-4 > 100 µM | SN12C 14.9 µM | HL-60 41 µM | HOP-92 35 µM | Malme-3M > 100 µM | MDA-MB-231 16 µM | CCRF-CEM 17.5 µM | DU-145 16.1 µM | SF-268 17.7 µM | NCI-H460 16.1 µM | SW-620 33.4 µM

NC(=O)NC(=O)c1cccc(CNc2ccc(C(=O)N[C@@H](CCC(=O)O)C(=O)O)cc2)n1
inactive: SR > 100 µM | MCF7 > 100 µM | U-251 > 100 µM | NCI-H522 > 100 µM | MOLT-4 > 100 µM | SN12C > 100 µM | HL-60 > 100 µM | HOP-92 > 100 µM | SF-295 > 100 µM | UO-31 > 100 µM | MDA-MB-231 > 100 µM | SF-539 > 100 µM | DU-145 > 100 µM | SF-268 > 100 µM | NCI-H460 > 100 µM | SW-620 > 100 µM

O=C(C/C(=N/O)c1cc(-c2ccccc2)no1)c1ccccc1
inactive: SR 13.6 µM | MCF7 44.5 µM | U-251 28.6 µM | NCI-H522 18.7 µM | MOLT-4 31.8 µM | SN12C 38.7 µM | HL-60 29 µM | HOP-92 22.2 µM | Malme-3M 41.4 µM | SF-295 33.7 µM | UO-31 26.4 µM | MDA-MB-231 21.4 µM | CCRF-CEM > 100 µM | SF-539 19.3 µM | DU-145 > 100 µM | SF-268 18.7 µM | NCI-H460 39.6 µM

CCCC(=O)OC[n+]1cccc(-c2c(COC(=O)NC(C)C)c(COC(=O)NC(C)C)c3n2CCC3)c1
inactive: SR 5.75 µM | MCF7 40 µM | U-251 > 60.7 µM | NCI-H522 30.4 µM | SNB-75 71.3 µM | MOLT-4 13.6 µM | SN12C 37.8 µM | HL-60 15.7 µM | HOP-92 32.4 µM | Malme-3M 66.5 µM | SF-295 71.9 µM | UO-31 38.7 µM | MDA-MB-231 > 74.8 µM | CCRF-CEM 9.98 µM | SF-539 28.8 µM | DU-145 43.2 µM | SF-268 32 µM | NCI-H460 29.6 µM | SW-620 48.2 µM

COc1ccc(C(=O)/C=C/c2ccc(OCC#N)cc2)cc1OC
inactive: SR 11.8 µM | MCF7 3.15 µM | U-251 14.3 µM | NCI-H522 16.8 µM | SNB-75 3.72 µM | MOLT-4 10.3 µM | SN12C 16.4 µM | HOP-92 22.6 µM | Malme-3M 20.9 µM | SF-295 > 10 µM | UO-31 18 µM | MDA-MB-231 13.8 µM | CCRF-CEM 3.21 µM | SF-539 17.9 µM | DU-145 11.6 µM | SF-268 26.6 µM | NCI-H460 27.7 µM | SW-620 7.16 µM

O=C1Nc2ccccc2/C1=N/N=C1NCCCCN1
inactive: SR > 100 µM | MCF7 > 100 µM | U-251 > 100 µM | NCI-H522 > 100 µM | SNB-75 > 100 µM | MOLT-4 > 100 µM | SN12C > 100 µM | HOP-92 > 100 µM | Malme-3M > 100 µM | SF-295 > 100 µM | UO-31 > 100 µM | MDA-MB-231 > 100 µM | CCRF-CEM > 100 µM | SF-539 > 100 µM | DU-145 > 100 µM | SF-268 > 100 µM | NCI-H460 > 100 µM | SW-620 > 100 µM

CCN(CC)c1ccc2cc(C(=O)Nc3cccc4ccccc34)c(=N)oc2c1
inactive: SR 7.96 µM | MCF7 > 100 µM | U-251 48.4 µM | NCI-H522 64 µM | SNB-75 > 100 µM | SN12C > 100 µM | HL-60 7.98 µM | HOP-92 > 100 µM | Malme-3M 30.5 µM | SF-295 45.5 µM | UO-31 > 100 µM | MDA-MB-231 > 100 µM | CCRF-CEM > 100 µM | SF-539 72.9 µM | DU-145 > 100 µM | SF-268 > 100 µM | NCI-H460 89.5 µM | SW-620 67 µM

COC(=O)C1=C2Nc3ccccc3C23CCN2C(O)C4(CC5CC67CCOC6CCN6CCC8(c9cccc(OC)c9N(C4)C58O)C67)C4OCCC4(C1)C23 (stereo not drawn)
inactive: SR 14.7 µM | MCF7 47.2 µM | U-251 35.6 µM | NCI-H522 36.4 µM | SNB-75 23.5 µM | SN12C 79.8 µM | HL-60 > 100 µM | HOP-92 27.2 µM | Malme-3M 56.4 µM | SF-295 34.6 µM | UO-31 > 100 µM | MDA-MB-231 15.6 µM | CCRF-CEM > 100 µM | SF-539 > 100 µM | DU-145 36.3 µM | SF-268 26.1 µM | NCI-H460 76.7 µM | SW-620 62.4 µM

COc1ccc2c(c1)CCC1=C/C(=N\NC(N)=O)CCC12C (stereo not drawn)
inactive: SR > 10 µM | MCF7 > 10 µM | U-251 > 10 µM | NCI-H522 > 10 µM | SNB-75 > 10 µM | MOLT-4 > 10 µM | SN12C > 10 µM | HL-60 9.62 µM | HOP-92 > 10 µM | Malme-3M > 10 µM | SF-295 > 10 µM | MDA-MB-231 > 10 µM | CCRF-CEM > 10 µM | SF-539 > 10 µM | DU-145 > 10 µM | SF-268 > 10 µM | SW-620 > 10 µM

NS(=O)(=O)c1nnc(NC(=O)Nc2ccc(Cl)c(Cl)c2)s1
inactive: SR 21.9 µM | MCF7 26.9 µM | U-251 29.4 µM | NCI-H522 11.7 µM | MOLT-4 32.5 µM | SN12C 19.3 µM | HL-60 28.8 µM | HOP-92 16.3 µM | Malme-3M 17.6 µM | SF-295 31.7 µM | UO-31 27.4 µM | MDA-MB-231 25.9 µM | CCRF-CEM 14.3 µM | SF-539 19 µM | DU-145 29.4 µM | SF-268 24.7 µM | NCI-H460 19.1 µM | SW-620 27.9 µM

CCN(CC)CCNC(=O)c1ccc(I)cc1
inactive: SR > 100 µM | MCF7 > 100 µM | U-251 > 100 µM | NCI-H522 > 100 µM | SNB-75 33.8 µM | MOLT-4 > 100 µM | SN12C > 100 µM | HOP-92 > 100 µM | Malme-3M > 100 µM | SF-295 > 100 µM | UO-31 > 100 µM | MDA-MB-231 > 100 µM | CCRF-CEM 89.5 µM | SF-539 > 100 µM | DU-145 > 100 µM | SF-268 > 100 µM | NCI-H460 > 100 µM | SW-620 > 100 µM
